According to patent US20220403326A1, “MEDIA FORMULATIONS AND METHODS FOR PRODUCING PROGENITOR T CELLS” (priority 2019, published 2022):

Columns and labels:
Format in all cases: cell-based, human
[1] = tested on: Notch target genes in CD34+ HSPCs (CD38lo/− and CD38+ fractions); experiment: qRT-PCR of Notch target and pro-myeloid genes after 5 days of culture
From the text: Umbilical cord blood (UCB) was collected from consenting donors at Mount Sinai Hospital, Toronto, Ontario, in accordance with institutional research ethics board policies. Mononuclear cells were fractioned via centrifugation using Lympholyte cell separation media (Cedarlane) and red blood cells were lysed using ammonium-chloride-potassium (ACK) lysing buffer prepared in-house. Mononuclear cells were enriched for >90% CD34+ cells using EasySep™ Human CD34+ Positive Selection Kit (Stemcell Technologies) according to the manufacturer's instructions. For certain experiments, enriched CD34+ cells were stained with CD34-APC and CD38-PE antibodies and sorted into CD34+CD38lo/− and CD34+CD38+ fractions using FACS Aria flow cytometer ([…]).
Cells were lysed and RNA isolated using the PureLink™ RNA Micro Kit (Invitrogen) according to the manufacturer's protocol. cDNA was reverse-transcribed from RNA using SuperScript™ III Reverse Transcriptase (Invitrogen) according to the manufacturer's protocol. cDNA was amplified with primers and FastStart SYBR Green Mastermix (Roche) using QuantStudio™ 6 Flex (Applied Biosystems). Relative expression of individual genes was calculated by the delta cycle threshold (ΔCt) method and normalization using β-actin to control for differences in input cDNA.
TNFα activates the NF-KB pathway, which may regulate Notch target genes or regulate Notch itself (FIG. 3a). To investigate if and how TNFα interacts with Notch, CD34+ HSPCs were first sorted into CD38lo/− and CD38+ fractions, and seeded separately on DL4+VCAM-1 with and without TNFα. Gene expression was measured using qPCR after 5 days of culture (FIG. 3b).

CD34+ HSPCs = experiment: Definitive screening design cytokine screen for proT cell differentiation and expansion
Protocol: For experiments 7 days or longer, HSPCs were seeded at 63-125 cells/mm^2 (equivalent to 2000-4000 cells/well of a 96-well plate) on DL4+VCAM-1-coated surfaces. Experiments shorter than 7 days (CFSE and qPCR) were seeded at 470-780 cells/mm^2 (equivalent to 15,000-25,000 cells/well of a 96-well plate) to provide enough cells for analysis. Cells were cultured in 100 μl/well (32 μl/well for 384-well plate) of Iscove's Modified Eagle Medium (IMDM) supplemented with 20% bovine serum albumin, insulin, and transferrin (BIT 9500) serum substitute (Stemcell Technologies), 1 μg/ml low-density lipoprotein (LDL; Stemcell Technologies), 60 μM ascorbic acid (Sigma), 24 μM 2-mercaptoethanol (Sigma), and 1% penicillin-streptomycin (P/S; Invitrogen). The cytokines used in control condition were SCF, FLT3L, TPO, and IL-7 (also known as the “4F cytokines”, all of which were obtained from R&D Systems), each at a concentration of 20 ng/ml or 100 ng/ml as indicated in the text. All other cytokines were purchased from R&D Systems and used in the combinations and concentrations indicated in the text. For certain experiments, the γ-secretase inhibitor (2S)-N-[(3,5-Difluorophenyl)acetyl]-L-alanyl-2-phenyl] glycine 1,1-dimethylethyl ester (DAPT) or dimethyl sulfoxide (DMSO) was added to media at the concentrations indicated in the text.
For screening experiments, a Definitive Screening Design (DSD)^7 was employed where each factor was tested at three levels (scaled to [−1,0,1]). The design included at least 2m+1 runs, where m is the number of factors, comprised of m fold-over pairs plus a center run (with all factors at level 0) and with orthogonal blocking of UCB donors.^8
Absolute cell numbers were acquired for each cell population of interest and, for initial experiments, a z-score was calculated relative to the control condition:
where SE(⋅) is the standard error. Control conditions were the cytokines used previously in the DL4+VCAM-1 assay as in Shukla et al.^6 Stepwise regression using the minimum Bayesian information criterion method was used to determine significant terms and, from this, a linear regression model of z-scores was constructed that included main and quadratic effects and two-factor interactions. This provided a better- or worse-than estimate for each factor compared to the control. The DSD layout and regression model were constructed using JMP 13 software (SAS). Follow up experiments measuring the dose response of top factors, the regression model was fit to the absolute cell count. Values were square root or log-transformed as necessary to ensure that residuals were approximately normal before fitting the regression model.
Test conditions were arranged using serial dilutions of each cytokine and laid out using an Eppendorf epMotion 5070 liquid handler in 384-well plates previously coated with DL4 and VCAM-1.
To identify factors that enhance proT cell differentiation and expansion, a two-part screen was conducted from day 0-7 and day 7-14 to separate the effects of screened molecules on HSPCs and differentiating proT cells (FIG. 1a). Screened molecules were tested at three doses each in combination using a definitive screening design (DSD) experiment and a linear regression model was fit to empirical data to estimate dose response.^7 The response to factors was measured against a control condition that contained SCF, FLT3L, TPO and IL-7 cytokines as in Shukla et al.^6 but using a lower concentration of 20 ng/ml each.
Medium gray indicates the effect of the control condition; dark gray to black indicates an effect greater than the control condition; and light gray to white indicates an effect lesser than the control condition. The size of each circle indicates the significance of the effect in the linear regression model. Combinations of factors indicate two-factor interactions (e.g., TPO*IL-1β) or quadratic effects (e.g., IL-21*IL-21) in the regression model. […] IL-3 and TNFα were selected for further investigation. […]

HSPCs = experiment: CFSE proliferation assay of HSPCs on DL4+VCAM-1
Protocol: To track the number of cell divisions, cells were stained with 2.5 μM CellTrace™ CFSE (ThermoFisher) in PBS and incubated at 37° C. for 8 minutes. CFSE was quenched by adding 5 times the volume of IMDM+BIT and incubating at 37° C. for 5 minutes. Cells were then resuspended in fresh media and seeded on DL4+VCAM-1 for culture. For analysis, cells were collected and stained for CD34, CD7, and CD5 surface markers as described above and analyzed using flow cytometry. Proliferation was modelled using FlowJo™ software and further analysis was performed with R.
To track the number of cell divisions in response to each of IL-3 and TNFα, the HSPCs were first stained with carboxyfluorescein succinimidyl ester (CFSE). IL-3 or TNFα were added on day 0 and the number of divisions of each cell was analyzed on days 2, 3, 4 and 5.

[2] = both CD38lo/− and CD38+ fractions, normalized to β-actin

TNFα
expression of any other Notch target genes or NOTCH1 itself [1]: No significant differences | SPI1 expression ([1]; CD38lo/− but not CD38+ HSPCs): downregulated SPI1 slightly | GATA3 expression [1, 2]: upregulated | TCF7 expression [1, 2]: upregulated | BCL11b expression ([1]; only CD38lo/− HSPCs): upregulated | CEBPA expression ([1]; only the CD38+ fraction): significantly downregulated | effect on total live cells, CD7+ lymphocytes and CD7+CD5+ cells relative to the control condition (CD34+ HSPCs; day 0-7 and day 7-14, control SCF, FLT3L, TPO, IL-7 at 20 ng/ml each, linear regression model): string positive effects | dose response of live cells, CD7+ lymphocytes and CD7+CD5+ proT cells (CD34+ HSPCs; range of concentrations, n=2 UCB donors): curved response in at least one population | proportion of proT2 (CD34+CD7+CD5+) cells (HSPCs; day 5): higher proportion of proT2 cells | upregulation of CD7 (HSPCs; days 2-5): slow to upregulate CD7
